Where “and” joins values, the source holds several entries; their conditions need not be identical. Equal values may be shown once. Read-outs that look alike come from different tables or passages of the source.
Experiments:
[1] = Intracerebroventricular (ICV) administration on 24-hour food-deprived rats; format: in vivo, rat; conditions: for water drunk: comparable to vehicle
Description: Animals were prepared with an ICV cannula aimed above the lateral ventricle. For this surgery, animals were placed under general anesthesia using continuous inhalation of isoflurane and secured in a Kopf stereotaxic instrument. Surgery was performed in a dedicated surgery room, using sterile instruments, surgical gloves and aseptic procedures to prevent clinical infections. The surgical site was shaved and disinfected with betadine solution and alcohol. Animals were observed continuously for the level of anesthesia by testing for the animals' responses to tail- or paw-pinch. A cannula made of 23 gauge stainless steel tubing (7 mm long) was lowered to a point 1 mm above the ventricle, using coordinates: A/P−0.6 mm from bregma, M/L+/−2.0 mm from bregma, D/V 3.2 mm below skull surface. The guide was anchored to the skull with three stainless steel screws and dental cement. Coordinates were based on stereotaxic atlas such as Paxinos and Watson sterotaxic atlas (Paxinos, G. and Watson, C, The Rat Brain, New York, Academic Press, 1982). After cannula implantation, a 30-gauge stainless steel dummy stylet was inserted into the cannula. At the conclusion of surgery, a heat source (heat lamp directed towards one half of recovery cage) was used to maintain body temperature while the animals recovered from anesthesia. Animals were allowed at least one week of recovery after surgery before ICV injection of compound was performed.
Animals were food-deprived for 24 hours prior to administration of the compound.
For ICV injection, the dummy stylet was removed from the implanted cannula, and a 30-gauge stainless steel injector cannula containing ARE112 suspension in a 45% cyclodextrin solution was inserted to a depth 1.5 mm beyond the ventral tip of the implanted cannula. The other (noninserted) end of the injector cannula was attached to 60 cm of PE10 tubing containing the compound suspension, which was attached at the free end of tubing to a 25 μl Hamilton syringe. Ten microliters of ARE112 suspension (containing, 0, 25, 50, and 100 nmol) were then delivered via gentle and even mechanical pressure to the plunger of the Hamilton syringe. The volume of injection was verified by marks on the PE 10 tubing previously calibrated with a 10 μl Hamilton syringe. At the conclusion of injection, any fluid observed from the dorsal tip of the implanted cannula upon withdrawal of the injector cannula was noted, and the dummy stylet was inserted into the implanted cannula.

[2] = molecular target: T1, GPR6 (Homo sapiens, UniProt P46095); test: membrane-based cyclic AMP confirmation assay (Example 4C); format: biochemical
T1 construct: expressed in transfected cells; 293 cells are used elsewhere
Method in brief: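 Membranes from stably transfected cells (0.60 mg/ml protein, 30 μg/well) in 20 mM HEPES pH 7.4, 100 mM NaCl, 10 mM MgCl2 were incubated 30 min at room temperature with compound at 12 μM final. cAMP then measured by Flash Plate adenylyl cyclase detection after 2-20 h, scintillation counting.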

[3] = Startle reflex in non-food deprived rats, oral administration; format: in vivo, rat; conditions: […] prior to testing, 12 db pre-pulse then 120 db pulse
Description: As further evidence of this mild sedative activity, animals were measured to determine their startle reflexes. In this assay, ARE112 was orally administered in non-food deprived rats 4.5 hours prior to testing. Animals were subjected to a pre-pulse of 12 db followed by a 120 db pulse and subsequently measured for the height in which the animals jumped.

[4] = Basal food/water intake and body weight in non-food deprived rats, IP administration; format: in vivo, rat; conditions: for food consumed over a period of 4 hrs: dark cycle, vehicle 9 g
Description: In this test, animals were not deprived of food but were instead observed for normal activity.
Animals were administered ARE112 at 0, 6.75, 13.5, 27 and 54 mg/kg, IP 30 min prior to the beginning of their dark cycle (i.e. 6:30 pm) and were then exposed to standard rat chow pellets (i.e. 30 min after compound administration) and observed for a period of 15.5 hr post administration. […] For example, the vehicle treated animals consumed 9 g of food over a period of 4 hrs, whereas animals treated with dose of 13.5 mg/kg and 54 mg/kg consumed less than half this amount over this same period (4 and 2 g of food, respectively). […] (See, FIGS. 6B and 6C).

[5] = Food intake in non-food deprived rats, oral gavage; format: in vivo, rat
Description: In a second assay, rats were treated with ARE112 by oral gavage but were not food deprived. Data evidence an even greater decrease in food intake, such that at 18 hours post administration of the compound, the vehicle rats had consumed about 15 grams of food while the injected rats (at all doses) ate 5 grams or less; about a three fold decrease in food consumption when treated with compound ARE112. (See, FIG. 9B).

T1 sequence (P46095 whole entry): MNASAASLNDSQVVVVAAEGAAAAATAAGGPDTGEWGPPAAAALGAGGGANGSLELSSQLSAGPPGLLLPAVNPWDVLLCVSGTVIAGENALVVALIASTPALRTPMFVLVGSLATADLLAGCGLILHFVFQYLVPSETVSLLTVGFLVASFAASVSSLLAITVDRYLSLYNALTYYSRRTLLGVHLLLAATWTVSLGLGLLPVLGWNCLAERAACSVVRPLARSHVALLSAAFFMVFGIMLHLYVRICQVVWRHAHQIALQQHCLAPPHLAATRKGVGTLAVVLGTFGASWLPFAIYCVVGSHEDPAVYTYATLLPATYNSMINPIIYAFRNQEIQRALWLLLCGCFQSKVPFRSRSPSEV

O=C(N=C1SSC2=NCCN21)c1cccs1 [ARE112, N-(5,6-dihydro-3H-imidazo[2,1-c]-1,2,4-dithiazol-3-ylidene)-thiophen-2-carboxamide]
water drunk ([1]; 25 nmol ICV): about 17 grams | water drunk ([1]; 50 nmol ICV): about 17 grams | water consumed ([1]; 100 nmol ICV, relative to about 17 grams): less than half that amount | weight gained ([1]; 100 nmol ICV, vehicle about 12 grams): 5 grams | food consumed ([1]; after three hours, ICV, vehicle about 2.5 grams): ≤ 1.0 grams | less food consumed than vehicle ([1]; two hours post-administration, all doses (25, 50, 100 nmol ICV)): about 6 fold | IC50 ([2]; assay number 1-3 for compound ARE112, read-out: IC50 Values (nM) cAMP): 88.3 nM and 77.4 nM and 99 nM | IC50 ([2]; mean +/- standard deviation (number of assays in brackets), read-out: IC50 Values Cyclic AMP Assay Example 4C): 100 nM | startle reflex (height jumped) ([3]; 13.5 mg/kg oral): did not jump as high | startle reflex (height jumped) ([3]; 54 mg/kg oral): did not jump as high | food consumed over a period of 4 hrs ([4]; 13.5 mg/kg IP): 4 g | food consumed over a period of 4 hrs ([4]; 54 mg/kg IP): 2 g | body weight gain ([4]; IP, non-deprived rats): decrease | water intake ([4]; IP, non-deprived rats): decrease | oral activity ([5]; 6.75 to 54 mg/kg): orally active | decrease in food consumption ([5]; 18 hours post administration): three | food consumed ([5]; all doses, 18 hours post administration, vehicle about 15 grams): ≤ 5 grams

— patent US6420563B1, “Small molecule modulators of G protein-coupled receptor six” (Arena Pharmaceuticals, Inc., priority 1998, dated 2002)
